In patent US12655106B2 (Eikonizo Therapeutics, Inc., priority 2021, dated 2026):

How the values were obtained:
Full length Human HDAC8 = target: T1, Full length Human HDAC8 (Homo sapiens, UniProt Q9BY41); assay: Caliper endpoint assay for HDAC enzymatic activity (HDAC8); assay type: biochemical; conditions: in vitro enzymatic, 30 min pre-incubation, 1 μM substrate peptide
T1 construct: Full length Human HDAC8; HIS (N); host or cells: baculovirus expression system
T1 sequence (Q9BY41 1-377): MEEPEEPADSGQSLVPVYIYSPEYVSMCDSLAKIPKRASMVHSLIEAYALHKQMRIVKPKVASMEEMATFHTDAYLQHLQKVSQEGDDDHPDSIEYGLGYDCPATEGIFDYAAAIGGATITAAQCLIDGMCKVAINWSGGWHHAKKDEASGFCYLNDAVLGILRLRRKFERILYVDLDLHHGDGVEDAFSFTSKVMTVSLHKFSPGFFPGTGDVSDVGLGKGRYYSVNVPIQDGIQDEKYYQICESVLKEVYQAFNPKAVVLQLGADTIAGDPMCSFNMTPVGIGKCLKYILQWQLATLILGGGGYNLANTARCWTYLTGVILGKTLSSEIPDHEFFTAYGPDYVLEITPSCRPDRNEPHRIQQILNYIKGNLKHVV

Full length Human HDAC6 = target: T2, Full length Human HDAC6 (Homo sapiens, UniProt Q9UBN7); assay: Caliper endpoint assay for HDAC enzymatic activity (HDAC6); assay type: biochemical; conditions: for IC50: in vitro enzymatic, Caliper endpoint assay, 30 min pre-incubation, 1 μM substrate peptide; for Selectivity (6 v 8): ratio of HDAC8 IC50/HDAC6 IC50
T2 construct: Full length Human HDAC6; FLAG (C); host or cells: baculovirus expression system
T2 sequence (Q9UBN7 1-1215): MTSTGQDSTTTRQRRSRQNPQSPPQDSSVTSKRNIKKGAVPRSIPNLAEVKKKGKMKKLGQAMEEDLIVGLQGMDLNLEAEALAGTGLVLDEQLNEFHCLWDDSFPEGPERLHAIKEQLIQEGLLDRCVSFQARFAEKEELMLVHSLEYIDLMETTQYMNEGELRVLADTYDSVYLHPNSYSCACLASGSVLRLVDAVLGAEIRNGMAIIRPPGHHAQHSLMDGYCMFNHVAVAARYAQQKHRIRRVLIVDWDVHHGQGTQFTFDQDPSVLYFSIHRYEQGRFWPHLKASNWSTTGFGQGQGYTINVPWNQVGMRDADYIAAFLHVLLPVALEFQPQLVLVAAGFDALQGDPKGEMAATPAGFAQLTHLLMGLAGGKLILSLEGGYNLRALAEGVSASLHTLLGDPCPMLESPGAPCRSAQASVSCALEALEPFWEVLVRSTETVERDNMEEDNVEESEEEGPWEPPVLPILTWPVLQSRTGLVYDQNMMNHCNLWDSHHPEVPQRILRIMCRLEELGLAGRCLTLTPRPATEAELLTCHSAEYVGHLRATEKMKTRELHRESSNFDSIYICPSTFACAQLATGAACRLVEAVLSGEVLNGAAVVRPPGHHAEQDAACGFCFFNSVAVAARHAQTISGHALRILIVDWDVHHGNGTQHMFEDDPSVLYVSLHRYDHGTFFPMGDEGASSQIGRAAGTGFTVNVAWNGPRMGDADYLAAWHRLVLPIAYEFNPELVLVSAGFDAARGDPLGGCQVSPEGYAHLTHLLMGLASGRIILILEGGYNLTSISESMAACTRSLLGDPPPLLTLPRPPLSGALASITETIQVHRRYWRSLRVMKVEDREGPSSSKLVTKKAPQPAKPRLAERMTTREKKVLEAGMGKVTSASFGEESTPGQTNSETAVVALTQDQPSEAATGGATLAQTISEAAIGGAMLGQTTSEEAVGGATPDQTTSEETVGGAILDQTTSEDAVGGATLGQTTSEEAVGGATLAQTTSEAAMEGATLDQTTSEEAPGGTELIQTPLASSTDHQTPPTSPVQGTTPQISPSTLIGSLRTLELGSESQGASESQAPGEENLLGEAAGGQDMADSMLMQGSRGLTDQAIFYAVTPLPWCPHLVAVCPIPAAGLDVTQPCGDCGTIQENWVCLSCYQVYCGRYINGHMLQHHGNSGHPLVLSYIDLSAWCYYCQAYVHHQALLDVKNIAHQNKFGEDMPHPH

| Structure (SMILES) | IC50 (Full length Human HDAC8) [nM] | IC50 (Full length Human HDAC6) [nM] | Selectivity (6 v 8) (Full length Human HDAC6) |
| --- | --- | --- | --- |
| CN1CC2CC(C1)C2CN1CCc2cc(C(=O)NO)cc(F)c2C1 (stereo not drawn) [Compound 463, 8-fluoro-2-[(3-methyl-3-azabicyclo[3.1.1]heptan-6-yl)methyl]-3,4-dihydro-1H-isoquinoline-6-carbohydroxamic acid] | 10000 to 100000 | 1 to 100 | IV (IV: >100-1000) |
| O=C(NO)c1cc(F)c2c(c1)CCN(CC1CCC3(CC1)CNC3)C2 [Compound 464, 2-(2-azaspiro[3.5]nonan-7-ylmethyl)-8-fluoro-3,4-dihydro-1H-isoquinoline-6-carbohydroxamic acid] | 10000 to 100000 | 1 to 100 | V (V: >1000) |
| CN1CC2(CCC(CN3CCc4cc(C(=O)NO)cc(F)c4C3)CC2)C1 [Compound 465, 8-fluoro-2-[(2-methyl-2-azaspiro[3.5]nonan-7-yl)methyl]-3,4-dihydro-1H-isoquinoline-6-carbohydroxamic acid] | 10000 to 100000 | 1 to 100 | V (V: >1000) |
| O=C(NO)c1cc(F)c2c(c1)CCN(CC1CCC3(CC1)CN(C1CC1)C3)C2 [Compound 466, 2-[(2-cyclopropyl-2-azaspiro[3.5]nonan-7-yl)methyl]-8-fluoro-3,4-dihydro-1H-isoquinoline-6-carbohydroxamic acid] | 10000 to 100000 | 1 to 100 | V (V: >1000) |
| CC(=O)N1CC2(CCC(CN3CCc4cc(C(=O)NO)cc(F)c4C3)CC2)C1 [Compound 467, 2-[(2-acetyl-2-azaspiro[3.5]nonan-7-yl)methyl]-8-fluoro-3,4-dihydro-1H-isoquinoline-6-carbohydroxamic acid] | 10000 to 100000 | 1 to 100 | IV (IV: >100-1000) |
| O=C(NO)c1cc(F)c2c(c1)CCN(CC1CC3(CCNCC3)C1)C2 [Compound 468, 2-(7-azaspiro[3.5]nonan-2-ylmethyl)-8-fluoro-3,4-dihydro-1H-isoquinoline-6-carbohydroxamic acid] | 10000 to 100000 | 1 to 100 | V (V: >1000) |
| CN1CCC2(CC1)CC(CN1CCc3cc(C(=O)NO)cc(F)c3C1)C2 [Compound 469, 8-fluoro-2-[(7-methyl-7-azaspiro[3.5]nonan-2-yl)methyl]-3,4-dihydro-1H-isoquinoline-6-carbohydroxamic acid] | 1000 to 10000 | 1 to 100 | IV (IV: >100-1000) |
| O=C(NO)c1cc(F)c2c(c1)CCN(CC1CC3(CCN(C4CC4)CC3)C1)C2 [Compound 470, 2-[(7-cyclopropyl-7-azaspiro[3.5]nonan-2-yl)methyl]-8-fluoro-3,4-dihydro-1H-isoquinoline-6-carbohydroxamic acid] | 10000 to 100000 | 1 to 100 | IV (IV: >100-1000) |
| CC(=O)N1CCC2(CC1)CC(CN1CCc3cc(C(=O)NO)cc(F)c3C1)C2 [Compound 471, 2-[(7-acetyl-7-azaspiro[3.5]nonan-2-yl)methyl]-8-fluoro-3,4-dihydro-1H-isoquinoline-6-carbohydroxamic acid] | 10000 to 100000 | 1 to 100 | IV (IV: >100-1000) |
| O=C(NO)c1cc(F)c2c(c1)CCN(C[C@@]13CN[C@@H](CO1)C3)C2 [Compound 472, 8-fluoro-2-[[(1R,4R)-2-oxa-5-azabicyclo[2.2.1]heptan-1-yl]methyl]-3,4-dihydro-1H-isoquinoline-6-carbohydroxamic acid] | 1000 to 10000 | 1 to 100 | IV (IV: >100-1000) |
| CN1C[C@@]2(CN3CCc4cc(C(=O)NO)cc(F)c4C3)C[C@@H]1CO2 [Compound 474, 8-fluoro-2-[[(1S,4R)-5-methyl-2-oxa-5-azabicyclo[2.2.1]heptan-1-yl]methyl]-3,4-dihydro-1H-isoquinoline-6-carbohydroxamic acid] | 1000 to 10000 | 1 to 100 | IV (IV: >100-1000) |
